In US20230085307A1, “PYRIDAZINONE COMPOUND AND HERBICIDE” (NISSAN CHEMICAL CORPORATION, priority 2019, published 2023):

Legend:
southern crabgrass [1] = experiment: Test Example 5: herbicidal effect by foliage application, plastic box (Table 20, symbol F); assay type: in vivo, southern crabgrass (Digitaria ciliaris); conditions: foliage application, AAH 320 g/ha, evaluated three weeks after application
In short: (§1)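 Foliar spray test: emulsion formulation diluted in water to a set application rate, sprayed onto 14-day-old plants raised in diluvial soil at 25° C to 30° C under glass. Both herbicidal effect and crop effect rated visually three weeks later.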

redroot pigweed [2] = experiment: Test Example 4: herbicidal effect by soil treatment (Table 19, symbol N); assay type: in vivo, redroot pigweed (Amaranthus retroflexus); conditions: amount of applied herbicide 320 g/ha
In short: (§2)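 Step 1: sow seeds in sterilized diluvial soil, cover ~1.5 cm. Step 2: spray diluted emulsion onto soil surface at predetermined rate. Step 3: greenhouse, 25–30° C, three weeks. Step 4: grade effect on each plant by earlier criteria.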

lambsquarters [3] = experiment: Test Example 4: herbicidal effect by soil treatment (Table 19, symbol O); assay type: in vivo, lambsquarters (Chenopodium album); conditions: amount of applied herbicide 320 g/ha
In short: as §2

oval-leafed pondweed = experiment: Test Example 1: herbicidal activity, application before weed generation under submerged conditions (Table 16, symbol C); assay type: in vivo, oval-leafed pondweed (Monochoria vaginalis)
In short: (§3)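 Emulsion formulation, water-diluted to set dose, was put onto the flooded surface (4 cm depth, alluvial soil) the same day weeds were sown and 2.5-leaf rice transplanted. After 3 weeks at 25-30 °C under glass, each species was rated 0 (≤5% kill) to 5 (≥90% kill).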

southern crabgrass [4] = experiment: Test Example 4: herbicidal effect by soil treatment (Table 19, symbol F); assay type: in vivo, southern crabgrass (Digitaria ciliaris); conditions: amount of applied herbicide 320 g/ha
In short: as §2

redroot pigweed [5] = experiment: Test Example 5: herbicidal effect by foliage application, plastic box (Table 20, symbol N); assay type: in vivo, redroot pigweed (Amaranthus retroflexus); conditions: foliage application, AAH 320 g/ha, evaluated three weeks after application
In short: as §1

green foxtail [6] = experiment: Test Example 5: herbicidal effect by foliage application, plastic box (Table 20, symbol G); assay type: in vivo, green foxtail (Setaria viridis); conditions: foliage application, AAH 320 g/ha, evaluated three weeks after application
In short: as §1

persian speedwell [7] = experiment: Test Example 4: herbicidal effect by soil treatment (Table 19, symbol R); assay type: in vivo, Persian speedwell (Veronica persica); conditions: amount of applied herbicide 320 g/ha
In short: as §2

Japanese bulrush = experiment: Test Example 1: herbicidal activity, application before weed generation under submerged conditions (Table 16, symbol B); assay type: in vivo, Japanese bulrush (Schoenoplectus juncoides)
In short: as §3

velvetleaf [8] = experiment: Test Example 5: herbicidal effect by foliage application, plastic box (Table 20, symbol M); assay type: in vivo, velvetleaf (Abutilon theophrasti); conditions: foliage application, AAH 320 g/ha, evaluated three weeks after application
In short: as §1

Italian ryegrass [9] = experiment: Test Example 4: herbicidal effect by soil treatment (Table 19, symbol K); assay type: in vivo, Italian ryegrass (Lolium multiflorum); conditions: amount of applied herbicide 320 g/ha
In short: as §2

blackgrass [10] = experiment: Test Example 5: herbicidal effect by foliage application, plastic box (Table 20, symbol J); assay type: in vivo, blackgrass (Alopecurus myosuroides); conditions: foliage application, AAH 320 g/ha, evaluated three weeks after application
In short: as §1

windgrass [11] = experiment: Test Example 5: herbicidal effect by foliage application, plastic box (Table 20, symbol L); assay type: in vivo, windgrass (Apera spica-venti); conditions: foliage application, AAH 320 g/ha, evaluated three weeks after application
In short: as §1

wild oat [12] = experiment: Test Example 5: herbicidal effect by foliage application, plastic box (Table 20, symbol I); assay type: in vivo, wild oat (Avena fatua); conditions: foliage application, AAH 320 g/ha, evaluated three weeks after application
In short: as §1

chickweed [13] = experiment: Test Example 5: herbicidal effect by foliage application, plastic box (Table 20, symbol P); assay type: in vivo, common chickweed (Stellaria media); conditions: foliage application, AAH 320 g/ha, evaluated three weeks after application
In short: as §1

Chinese sprangletop = experiment: Test Example 3: herbicidal effect by foliage application, Wagner pot (Table 18, symbol D); assay type: in vivo, chinese sprangletop (Leptochloa chinensis); conditions: amount of applied herbicide 320 g/ha
In short: (§4)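 Plants were sown in alluvial soil held under 0.1–0.5 cm standing water and grown 14 days in a greenhouse at 25–30 °C. An emulsifiable formulation, water-diluted to the set dose, was then sprayed onto the foliage, and effects were scored three weeks later using previously defined criteria.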

barnyard grass [14] = experiment: Test Example 3: herbicidal effect by foliage application, Wagner pot (Table 18, symbol H); assay type: in vivo, barnyard grass (Echinochloa crus-galli); conditions: amount of applied herbicide 320 g/ha
In short: as §4

velvetleaf [15] = experiment: Test Example 4: herbicidal effect by soil treatment (Table 19, symbol M); assay type: in vivo, velvetleaf (Abutilon theophrasti); conditions: amount of applied herbicide 320 g/ha
In short: as §2

wild oat [16] = experiment: Test Example 4: herbicidal effect by soil treatment (Table 19, symbol I); assay type: in vivo, wild oat (Avena fatua); conditions: amount of applied herbicide 320 g/ha
In short: as §2

late watergrass = experiment: Test Example 1: herbicidal activity, application before weed generation under submerged conditions (Table 16, symbol A); assay type: in vivo, late watergrass (Echinochloa oryzicola)
In short: as §3

green foxtail [17] = experiment: Test Example 4: herbicidal effect by soil treatment (Table 19, symbol G); assay type: in vivo, green foxtail (Setaria viridis); conditions: amount of applied herbicide 320 g/ha
In short: as §2

blackgrass [18] = experiment: Test Example 4: herbicidal effect by soil treatment (Table 19, symbol J); assay type: in vivo, blackgrass (Alopecurus myosuroides); conditions: amount of applied herbicide 320 g/ha
In short: as §2

Italian ryegrass [19] = experiment: Test Example 5: herbicidal effect by foliage application, plastic box (Table 20, symbol K); assay type: in vivo, Italian ryegrass (Lolium multiflorum); conditions: foliage application, AAH 320 g/ha, evaluated three weeks after application
In short: as §1

rice flat sedge = experiment: Test Example 3: herbicidal effect by foliage application, Wagner pot (Table 18, symbol E); assay type: in vivo, rice flat sedge (Cyperus iria); conditions: amount of applied herbicide 320 g/ha
In short: as §4

barnyard grass [20] = experiment: Test Example 5: herbicidal effect by foliage application, plastic box (Table 20, symbol H); assay type: in vivo, barnyard grass (Echinochloa crus-galli); conditions: foliage application, AAH 320 g/ha, evaluated three weeks after application
In short: as §1

chickweed [21] = experiment: Test Example 4: herbicidal effect by soil treatment (Table 19, symbol P); assay type: in vivo, common chickweed (Stellaria media); conditions: amount of applied herbicide 320 g/ha
In short: as §2

windgrass [22] = experiment: Test Example 4: herbicidal effect by soil treatment (Table 19, symbol L); assay type: in vivo, windgrass (Apera spica-venti); conditions: amount of applied herbicide 320 g/ha
In short: as §2

persian speedwell [23] = experiment: Test Example 5: herbicidal effect by foliage application, plastic box (Table 20, symbol R); assay type: in vivo, Persian speedwell (Veronica persica); conditions: foliage application, AAH 320 g/ha, evaluated three weeks after application
In short: as §1

lambsquarters [24] = experiment: Test Example 5: herbicidal effect by foliage application, plastic box (Table 20, symbol O); assay type: in vivo, lambsquarters (Chenopodium album); conditions: foliage application, AAH 320 g/ha, evaluated three weeks after application
In short: as §1

barnyard grass [25] = experiment: Test Example 4: herbicidal effect by soil treatment (Table 19, symbol H); assay type: in vivo, barnyard grass (Echinochloa crus-galli); conditions: amount of applied herbicide 320 g/ha
In short: as §2

[26] = amount of applied herbicide 320 g/ha

Row | SMILES | F: southern crabgrass, herbicidal effect (criteria 0-5) (southern crabgrass [1]) | N: redroot pigweed, herbicidal effect (criteria 0-5) (redroot pigweed [5]) | G: green foxtail, herbicidal effect (criteria 0-5) (green foxtail [6]) | M: velvetleaf, herbicidal effect (criteria 0-5) (velvetleaf [8]) | J: blackgrass, herbicidal effect (criteria 0-5) (blackgrass [10]) | L: windgrass, herbicidal effect (criteria 0-5) (windgrass [11]) | I: wild oat, herbicidal effect (criteria 0-5) (wild oat [12]) | P: chickweed, herbicidal effect (criteria 0-5) (chickweed [13]) | herbicidal effect on D: Chinese sprangletop (Chinese sprangletop) | herbicidal effect on H: barnyard grass (barnyard grass [14]) | K: Italian ryegrass, herbicidal effect (criteria 0-5) (Italian ryegrass [19]) | herbicidal effect on E: rice flat sedge (rice flat sedge) | H: barnyard grass, herbicidal effect (criteria 0-5) (barnyard grass [20]) | R: persian speedwell, herbicidal effect (criteria 0-5) (persian speedwell [23]) | O: lambsquarters, herbicidal effect (criteria 0-5) (lambsquarters [24]) | further results
1 | CCSCc1ccc(-c2sc3ccc(F)cc3c2-c2c(O)c(C)nn(C)c2=O)cc1 [2-319] | 5 (Herbicidal rate of 90% or more (almost completely withered)) | 5 (Herbicidal rate of 90% or more (almost completely withered)) | 5 (Herbicidal rate of 90% or more (almost completely withered)) | 5 (Herbicidal rate of 90% or more (almost completely withered)) | 4 (Herbicidal rate of 70% or more and less than 90%) | 4 (Herbicidal rate of 70% or more and less than 90%) | 4 (Herbicidal rate of 70% or more and less than 90%) | 5 (Herbicidal rate of 90% or more (almost completely withered)) | 4 (Herbicidal rate of 70% or more and less than 90%) | 5 (Herbicidal rate of 90% or more (almost completely withered)) | 4 (Herbicidal rate of 70% or more and less than 90%) | 5 (Herbicidal rate of 90% or more (almost completely withered)) | 5 (Herbicidal rate of 90% or more (almost completely withered)) | 5 (Herbicidal rate of 90% or more (almost completely withered)) | 5 (Herbicidal rate of 90% or more (almost completely withered)) | herbicidal effect on N: redroot pigweed (redroot pigweed [2]): 4 (Herbicidal rate of 70% or more and less than 90%); herbicidal effect on O: lambsquarters (lambsquarters [3]): 3 (Herbicidal rate of 40% or more and less than 70%); Herbicidal effect on C: oval-leafed pondweed (grade 0-5) (oval-leafed pondweed; 320 g/ha applied herbicide): 3 (Herbicidal rate of 40% or more and less than 70%); herbicidal effect on F: southern crabgrass (southern crabgrass [4]): 4 (Herbicidal rate of 70% or more and less than 90%); herbicidal effect on R: persian speedwell (persian speedwell [7]): 4 (Herbicidal rate of 70% or more and less than 90%); Herbicidal effect on B: Japanese bulrush (grade 0-5) (Japanese bulrush; 320 g/ha applied herbicide): 2 (Herbicidal rate of 20% or more and less than 40%); herbicidal effect on K: Italian ryegrass (Italian ryegrass [9]): 4 (Herbicidal rate of 70% or more and less than 90%); herbicidal effect on M: velvetleaf (velvetleaf [15]): 3 (Herbicidal rate of 40% or more and less than 70%); herbicidal effect on I: wild oat (wild oat [16]): 0 (Herbicidal rate of 5% or less (almost no effect)); Herbicidal effect on A: late watergrass (grade 0-5) (late watergrass; 320 g/ha applied herbicide): 4 (Herbicidal rate of 70% or more and less than 90%); herbicidal effect on G: green foxtail (green foxtail [17]): 4 (Herbicidal rate of 70% or more and less than 90%); herbicidal effect on J: blackgrass (blackgrass [18]): 0 (Herbicidal rate of 5% or less (almost no effect)); herbicidal effect on P: chickweed (chickweed [21]): 0 (Herbicidal rate of 5% or less (almost no effect)); herbicidal effect on L: windgrass (windgrass [22]): 1 (Herbicidal rate of 5% or more and less than 20%); herbicidal effect on H: barnyard grass (barnyard grass [25]): 3 (Herbicidal rate of 40% or more and less than 70%)
2 | COc1ccccc1-c1sc2ccc(C=O)cc2c1-c1c(O)c(C)nn(C)c1=O [2-395] | 3 (Herbicidal rate of 40% or more and less than 70%) | 5 (Herbicidal rate of 90% or more (almost completely withered)) | 4 (Herbicidal rate of 70% or more and less than 90%) | 5 (Herbicidal rate of 90% or more (almost completely withered)) | 0 (Herbicidal rate of 5% or less (almost no effect)) | 0 (Herbicidal rate of 5% or less (almost no effect)) | 0 (Herbicidal rate of 5% or less (almost no effect)) | 5 (Herbicidal rate of 90% or more (almost completely withered)) | 3 (Herbicidal rate of 40% or more and less than 70%) | 3 (Herbicidal rate of 40% or more and less than 70%) | 0 (Herbicidal rate of 5% or less (almost no effect)) | 3 (Herbicidal rate of 40% or more and less than 70%) | 3 (Herbicidal rate of 40% or more and less than 70%) | 4 (Herbicidal rate of 70% or more and less than 90%) | 5 (Herbicidal rate of 90% or more (almost completely withered)) | herbicidal effect, N: redroot pigweed (redroot pigweed [2]): 3 (Herbicidal rate of 40% or more and less than 70%); herbicidal effect, O: lambsquarters (lambsquarters [3]): 3 (Herbicidal rate of 40% or more and less than 70%); Herbicidal effect, C: oval-leafed pondweed (oval-leafed pondweed; [26]): 0 (Herbicidal rate of 5% or less (almost no effect)); herbicidal effect, F: southern crabgrass (southern crabgrass [4]): 0 (Herbicidal rate of 5% or less (almost no effect)); herbicidal effect, R: persian speedwell (persian speedwell [7]): 0 (Herbicidal rate of 5% or less (almost no effect)); Herbicidal effect, B: Japanese bulrush (Japanese bulrush; [26]): 2 (Herbicidal rate of 20% or more and less than 40%); herbicidal effect, K: Italian ryegrass (Italian ryegrass [9]): 0 (Herbicidal rate of 5% or less (almost no effect)); herbicidal effect, M: velvetleaf (velvetleaf [15]): 0 (Herbicidal rate of 5% or less (almost no effect)); herbicidal effect, I: wild oat (wild oat [16]): 0 (Herbicidal rate of 5% or less (almost no effect)); Herbicidal effect, A: late watergrass (late watergrass; [26]): 0 (Herbicidal rate of 5% or less (almost no effect)); herbicidal effect, G: green foxtail (green foxtail [17]): 0 (Herbicidal rate of 5% or less (almost no effect)); herbicidal effect, J: blackgrass (blackgrass [18]): 0 (Herbicidal rate of 5% or less (almost no effect)); herbicidal effect, P: chickweed (chickweed [21]): 0 (Herbicidal rate of 5% or less (almost no effect)); herbicidal effect, L: windgrass (windgrass [22]): 0 (Herbicidal rate of 5% or less (almost no effect)); herbicidal effect, H: barnyard grass (barnyard grass [25]): 0 (Herbicidal rate of 5% or less (almost no effect))
